Source: ChEMBL document CHEMBL5550155, “Discovery of meisoindigo derivatives as noncovalent and orally available Mpro inhibitors: their therapeutic implications in the treatment of COVID-19” (Eur J Med Chem, 2024)
pEC50, pIC50, pKd: −log10 of the molar value. The source made the active and inactive calls. The rule behind the calls is not given here.

How the values were obtained:
[1] = biological target: Replicase polyprotein 1ab (Severe acute respiratory syndrome coronavirus 2) (UniProt P0DTD1); test: Inhibition of recombinant SARS-CoV-2 main protease expressed in Escherichia coli BL21 DE3 expression cells using MCA-AVLQSGFR-Lys(Dnp)-Lys-NH2 as substrate at 10 uM incubated for 10 to 15 mins followed by substrate addition by FRET assay relative to control; conditions: time 10-15 min
[2] = biological target: T1, Replicase polyprotein 1ab (Severe acute respiratory syndrome coronavirus 2, UniProt P0DTD1); test: Inhibition of recombinant SARS-CoV-2 main protease expressed in Escherichia coli BL21 DE3 expression cells using MCA-AVLQSGFR-Lys(Dnp)-Lys-NH2 as substrate incubated for 10 to 15 mins followed by substrate addition by FRET assay
SARS-CoV-2 [3] = test: Antiviral activity against wild type SARS-CoV-2 infected in human Calu-3 assessed as reduction in viral spike protein level at 10 uM preincubated with cells for 2 hrs followed by viral infection for 1 hr and measured after 24 hrs by RT-qPCR analysis; format: functional, organism-based; conditions: Severe acute respiratory syndrome coronavirus 2, time 27.0 hrs
SARS-CoV-2 [4] = test: Antiviral activity against wild type SARS-CoV-2 infected in human Calu-3 assessed as reduction in nucleocapsid protein level at 10 uM preincubated with cells for 2 hrs followed by viral infection for 1 hr and measured after 24 hrs by Western blot analysis; format: functional, organism-based; conditions: Severe acute respiratory syndrome coronavirus 2, time 27.0 hrs
SARS-CoV-2 [5] = test: Antiviral activity against wild type SARS-CoV-2 infected in human Calu-3 cells assessed as reduction in nucleocapsid protein mRNA level at 10 uM preincubated with cells for 2 hrs followed by viral infection for 1 hr and measured after 24 hrs by RT-qPCR analysis; format: functional, organism-based; conditions: Severe acute respiratory syndrome coronavirus 2, time 27.0 hrs
SARS-CoV-2 [6] = test: Antiviral activity against wild type SARS-CoV-2 infected in human Calu-3 cells assessed as reduction in viral spike protein level at 10 uM preincubated with cells for 2 hrs followed by viral infection for 1 hr and measured after 24 hrs by Western blot analysis; format: functional, organism-based; conditions: Severe acute respiratory syndrome coronavirus 2, time 27.0 hrs
SARS-CoV-2 [7] = test: Antiviral activity against wild type SARS-CoV-2 infected in human HeLa cells expressing ACE2 assessed as reduction in viral spike protein level preincubated with cells for 2 hrs followed by viral infection for 1 hr and measured after 24 hrs by RT-qPCR analysis; format: functional, organism-based; conditions: Severe acute respiratory syndrome coronavirus 2, HeLa
[8] = biological target: T1, Replicase polyprotein 1ab; test: Non-covalent inhibition of SARS-CoV-2 main protease incubated for 30 mins followed by substrate addition by FRET assay
SARS-CoV-2 [9] = test: Antiviral activity against wild type SARS-CoV-2 infected in human HeLa cells expressing ACE2 assessed as reduction in nucleocapsid protein mRNA level preincubated with cells for 2 hrs followed by viral infection for 1 hr and measured after 24 hrs by RT-qPCR analysis; format: functional, organism-based; conditions: Severe acute respiratory syndrome coronavirus 2, HeLa
[10] = biological target: T1, Replicase polyprotein 1ab; test: Non-covalent inhibition of SARS-CoV-2 main protease incubated for 10 mins followed by substrate addition by FRET assay
[11] = Stability of compound in stimulated intestinal fluid assessed as parent compound remaining measured upto 24 hrs by HPLC analysis; format: ADME; conditions: simulated intestinal fluid, read-out: Stability
SARS-CoV-2 [12] = test: Antiviral activity against wild type SARS-CoV-2 infected in human HeLa cells expressing ACE2 assessed as reduction in nucleocapsid protein level at 10 uM preincubated with cells for 2 hrs followed by viral infection for 1 hr and measured after 24 hrs by Western blot analysis; format: functional, organism-based; conditions: Severe acute respiratory syndrome coronavirus 2, time 27.0 hrs
[13] = n-Octanol/water partition coefficient, logP of the compound incubated for 12 hrs by HPLC analysis; format: physicochemical
[14] = Stability of compound in stimulated gastric fluid assessed as parent compound remaining measured upto 24 hrs by HPLC analysis; format: ADME; conditions: simulated gastric fluid, read-out: Stability
[15] = biological target: T1, Replicase polyprotein 1ab; test: Binding affinity to recombinant SARS-CoV-2 main protease expressed in Escherichia coli BL21 DE3 expression cells assessed as dissociation constant measured for 60 secs by SPR analysis
SARS-CoV-2 [16] = test: Antiviral activity against SARS-CoV-2 infected in African green monkey Vero E6 cells assessed as reduction in viral plaque number pre-infected with virus followed by cell addition for 1 hr and measured after 24 hrs by plaque assay; format: functional, organism-based; conditions: Severe acute respiratory syndrome coronavirus 2
SARS-CoV-2 [17] = test: Antiviral activity against SARS-CoV-2 infected in African green monkey Vero E6 cells assessed as reduction in viral plaque size pre-infected with virus followed by cell addition for 1 hr and measured after 24 hrs by plaque assay; format: functional, organism-based; conditions: Severe acute respiratory syndrome coronavirus 2
SARS-CoV-2 [18] = test: Antiviral activity against wild type SARS-CoV-2 infected in human HeLa cells expressing ACE2 assessed as reduction in viral spike protein level at 10 uM preincubated with cells for 2 hrs followed by viral infection for 1 hr and measured after 24 hrs by Western blot analysis; format: functional, organism-based; conditions: Severe acute respiratory syndrome coronavirus 2, time 27.0 hrs
[19] = biological target: T1, Replicase polyprotein 1ab; test: Non-covalent inhibition of SARS-CoV-2 main protease incubated for 50 mins followed by substrate addition by FRET assay
[20] = Solubility of the compound in water incubated for 24 hrs by HPLC analysis; format: physicochemical
[21] = Metabolic stability in mouse liver microsomes assessed as half life at 10 mg/ml preincubated for 5 mins followed by NADPH addition and measured upto 120 mins by HPLC analysis; format: ADME, Microsome; conditions: time < 125 min
[22] = Metabolic stability in mouse liver microsomes assessed as parent compound remaining at 10 mg/ml measured after 120 mins by HPLC analysis; format: ADME, Microsome; conditions: read-out: Stability
[23] = Metabolic stability in mouse liver microsomes assessed as intrinsic clearance at 10 mg/ml preincubated for 5 mins followed by NADPH addition and measured upto 120 mins by HPLC analysis; format: ADME, Microsome; conditions: time < 125 min, read-out: CLH

Compound: CCOC(=O)CCCCCCCCCN1C(=O)/C(=C2/C(=O)Nc3ccccc32)c2cc(Br)ccc21
- inhibition [1]: 21.2%

Compound: CN1CCN(CCN2C(=O)/C(=C3/C(=O)Nc4ccccc43)c3ccccc32)CC1
- inhibition [1]: 91.3%

Compound: CN1C(=O)C2(CC=CCC23C(=O)Nc2ccc(Br)cc23)c2ccccc21 (stereo not given)
- inhibition [1]: 6%

Compound: COc1ccc2c(c1)/C(=C1\C(=O)Nc3ccccc31)C(=O)N2C
- inhibition [1]: 91.4%

Compound: COc1ccc2c(c1)/C(=C1\C(=O)Nc3ccccc31)C(=O)N2CCCCCCCC(=O)O
- pIC50 [2]: 5.79
- inhibition [1]: 89.1%

Compound: CN1C(=O)/C(=C2/C(=O)N(C)c3ccccc32)c2ccccc21
- inhibition [1]: 25.7%

Compound: CN1C(=O)/C(=C2/C(=O)N(CCNC(=O)OC(C)(C)C)c3ccccc32)c2ccccc21
- inhibition [1]: 52.6%

Compound: CN1C(=O)/C(=C2/C(=O)Nc3ccccc32)c2cc(F)ccc21
- inhibition [1]: 82.5%

Compound: O=C1Nc2ccccc2/C1=C1\C(=O)Nc2ccccc21 [ISOINDIGO]
- pIC50 [2]: 5.92
- inhibition [1]: 85.3%

Compound: O=C(O)CCCCCCCCCN1C(=O)/C(=C2/C(=O)Nc3ccccc32)c2cc(Br)ccc21
- inhibition [1]: 76.8%

Compound: O=C(O)CCCCCCCN1C(=O)/C(=C2/C(=O)Nc3ccccc32)c2cc(Br)ccc21
- Activity (SARS-CoV-2 [3]): Active
- Activity (SARS-CoV-2 [4]): Active
- Activity (SARS-CoV-2 [5]): Active
- Activity (SARS-CoV-2 [6]): Active
- pIC50 [2]: 5.92
- inhibition [1]: 97.8%

Compound: O=C(O)CCCCCCCCCN1C(=O)/C(=C2/C(=O)Nc3ccccc32)c2ccccc21
- inhibition [1]: 71.2%

Compound: CN1C(=O)/C(=C2/C(=O)Nc3ccccc32)c2cc(Cl)ccc21
- inhibition [1]: 40.8%

Compound: CC(C)(C)[C@H](NC(=O)C(F)(F)F)C(=O)N1C[C@H]2[C@@H]([C@H]1C(=O)N[C@H](C#N)C[C@@H]1CCNC1=O)C2(C)C
- pEC50 (SARS-CoV-2 [7]): 4.77

Compound: CCOC(=O)CCCCCCCN1C(=O)/C(=C2/C(=O)Nc3ccccc32)c2cc(Br)ccc21
- inhibition [1]: 25.2%

Compound: O=C(O)CCCCCCCCCCCN1C(=O)/C(=C2/C(=O)Nc3ccccc32)c2ccccc21
- inhibition [1]: 72.9%

Compound: CN1C(=O)/C(=C2/C(=O)Nc3ccccc32)c2cc(O)ccc21
- Activity (SARS-CoV-2 [3]): Active
- Activity (SARS-CoV-2 [5]): Active
- Activity (SARS-CoV-2 [6]): Active
- inhibition [1]: 84.2%

Compound: COc1ccc2c(c1)C1(CC=CCC13C(=O)Nc1ccccc13)C(=O)N2C (stereo not given)
- inhibition [1]: 4.1%

Compound: COc1ccc2c(c1)/C(=C1\C(=O)N(C)c3ccccc31)C(=O)N2
- inhibition [1]: 70.7%

Compound: O=C(O)CCCCCCCN1C(=O)/C(=C2/C(=O)Nc3ccccc32)c2cc(O)ccc21
- inhibition [1]: 63.7%

Compound: CN1C(=O)/C(=C2/C(=O)Nc3ccccc32)c2ccccc21 [MEISOINDIGO]
- pIC50 [2]: 4.81
- inhibition [1]: 50.6%

Compound: CN1C(=O)/C(=C2/C(=O)N(CCN)c3ccccc32)c2cc(Br)ccc21.Cl
- pIC50 [8]: 5.82
- pEC50 (SARS-CoV-2 [9]): 5.69
- pIC50 [10]: 5.71
- remaining at 24 h [11]: 78%
- Activity (SARS-CoV-2 [12]): Active
- logP at 12 h [13]: 0.59
- remaining at 24 h [14]: 95%
- pKd [15]: 5.90
- Activity (SARS-CoV-2 [16]): Active
- pIC50 [2]: 5.96
- Activity (SARS-CoV-2 [17]): Active
- Activity (SARS-CoV-2 [18]): Active
- inhibition [1]: 85.8%
- pIC50 [19]: 5.83
- solubility at 24 h [20]: 3.81 mg/mL
- pEC50 (SARS-CoV-2 [7]): 5.75

Compound: CN1C(=O)/C(=C2/C(=O)Nc3ccccc32)c2cc(Br)ccc21
- inhibition [1]: 32.4%

Compound: CN1C(=O)/C(=C2/C(=O)Nc3ccccc32)c2cc([N+](=O)[O-])ccc21
- Activity (SARS-CoV-2 [4]): Active
- inhibition [1]: 32.8%

Compound: CN1C(=O)/C(=C2/C(=O)N(CCN3CCCC3)c3ccccc32)c2ccccc21.Cl
- remaining at 24 h [11]: 85.3%
- Activity (SARS-CoV-2 [12]): inactive
- logP at 12 h [13]: 0.7
- remaining at 24 h [14]: 95.2%
- pKd [15]: 6.15
- pIC50 [2]: 5.94
- Activity (SARS-CoV-2 [18]): inactive
- inhibition [1]: 86.5%
- solubility at 24 h [20]: 17.3 mg/mL

Compound: O=C1Nc2ccccc2/C1=C1\C(=O)N(CCN2CCOCC2)c2ccccc21
- inhibition [1]: 83.9%

Compound: O=C(O)CCCCCN1C(=O)/C(=C2/C(=O)Nc3ccccc32)c2ccccc21
- inhibition [1]: 59.8%

Compound: CN1C(=O)C2(CC=CCC23C(=O)Nc2ccccc23)c2ccccc21 (stereo not given)
- inhibition [1]: 11.9%

Compound: O=C1Nc2ccccc2/C1=C1\C(=O)N(CCBr)c2ccccc21
- inhibition [1]: 97.4%

Compound: CN1C(=O)/C(=C2/C(=O)N(CCCN)c3ccc(Br)cc32)c2ccccc21.Cl
- pIC50 [8]: 5.94
- pEC50 (SARS-CoV-2 [9]): 5.58
- pIC50 [10]: 5.89
- remaining at 24 h [11]: 73.6%
- half-life [21]: 8.25 h
- Activity (SARS-CoV-2 [12]): Active
- logP at 12 h [13]: 0.29
- remaining at 24 h [14]: 95.3%
- pKd [15]: 4.78
- Activity (SARS-CoV-2 [16]): Active
- pIC50 [2]: 5.87
- remaining at 2 h [22]: 84%
- Activity (SARS-CoV-2 [17]): Active
- Activity (SARS-CoV-2 [18]): Active
- inhibition [1]: 90.5%
- pIC50 [19]: 5.87
- microsomal CLint [23]: 1.4 µL/min/mg
- solubility at 24 h [20]: 2.49 mg/mL
- pEC50 (SARS-CoV-2 [7]): 5.56

Compound: CN1C(=O)/C(=C2/C(=O)Nc3ccc(Br)cc32)c2ccccc21
- inhibition [1]: 94.5%

Compound: O=C(O)CCCCCCCN1C(=O)/C(=C2/C(=O)Nc3ccccc32)c2ccccc21
- inhibition [1]: 73.8%
